According to article PMC7802075 (ACS Infectious Diseases, 2020):
Like-named read-outs stand apart in the source and are kept apart here.

Key:
[1] = biological target: T1, LmjIPCS (inositol phosphorylceramide synthase from L. major) (Leishmania major, UniProt E9AFX2); assay: biochemical; format: biochemical; set-up: inhibition: dose or concentration left out as unconfirmed
T1 sequence (E9AFX2 1-338): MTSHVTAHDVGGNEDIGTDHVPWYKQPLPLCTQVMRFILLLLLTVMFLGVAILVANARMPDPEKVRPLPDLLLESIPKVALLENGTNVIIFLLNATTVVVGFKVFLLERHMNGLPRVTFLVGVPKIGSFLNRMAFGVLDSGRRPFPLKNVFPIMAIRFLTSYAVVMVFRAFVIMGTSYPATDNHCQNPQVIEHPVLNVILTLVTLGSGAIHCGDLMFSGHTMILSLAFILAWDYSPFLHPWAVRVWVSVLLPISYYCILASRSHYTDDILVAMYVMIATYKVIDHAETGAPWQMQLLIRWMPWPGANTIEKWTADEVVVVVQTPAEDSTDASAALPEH

[2] = tested on: L. major (FV1) promastigotes; assay: Antipromastigote resazurin assay, L. major (FV1) wild type; format: cell-based, Leishmania major; conditions: for EC50 / inhibition of growth at 10000 µM: Leishmania major; for EC50 / antileishmanial activity: secondary dose response; for EC50: L. major (FV1), read-out: EC50 against L. major promastigotes
[3] = tested on: clemastine fumarate-resistant L. major promastigotes (cl.C and cl.D); format: cell-based, Leishmania major
[4] = NINDS set screen, single concentration printed as 20mM
[5] = NINDS set screen against L. major promastigotes, single concentration printed as 10mM
[6] = L. major promastigotes, dose response

Row | Compound | 20mM inhibition LmjIPCS [1, 4] [%] | 10mM inhibition L. major [2, 5] [%] | 20mM inhibition LmjIPCS [1] [%] | further results
1 | O=C1c2c(O)cccc2Cc2cccc(O)c21 [ANTHRALIN] | 70 | <5 | – | –
2 | NC[C@@H]1O[C@H](O[C@H]2[C@@H](O)[C@H](O[C@@H]3[C@@H](O)[C@H](N)C[C@H](N)[C@H]3O[C@H]3O[C@H](CN)[C@@H](O)[C@H](O)[C@H]3N)O[C@@H]2CO)[C@H](N)[C@@H](O)[C@@H]1O [NEOMYCIN] | 88 | <5 | – | –
3 | CCCCCCCCCCCCCCCC[N+](C)(C)C [CETRIMONIUM] | – | <5 | 75 | –
4 | CCCC1O[C@@H]2C[C@H]3[C@@H]4CCC5=CC(=O)C=C[C@]5(C)[C@H]4[C@@H](O)C[C@]3(C)[C@]2(C(=O)CO)O1 (stereo partly shown) [BUDESONIDE] | 79 | <5 | – | –
5 | CN1CCc2c(c3ccccc3n2Cc2ccccc2)C1 [MEBHYDROLIN] | 72 | <5 | – | –
6 | CCc1nc(N)nc(N)c1-c1ccc(Cl)cc1 [PYRIMETHAMINE] | 77 | <5 | – | –
7 | CC(C)CC(N(C)C)C1(c2ccc(Cl)cc2)CCC1 (stereo not shown) [SIBUTRAMINE] | – | <5 | 74 | –
8 | CC(C)=CCc1c2c(c3occ(-c4ccc(O)c(O)c4)c(=O)c3c1O)C=CC(C)(C)O2 [POMIFERIN] | 73 | <5 | – | –
9 | CN(C)CCCN1c2ccccc2Sc2ccccc21 [PROMAZINE] | – | <5 | 77 | –
10 | Cc1cccc(CN2CCN(C(c3ccccc3)c3ccc(Cl)cc3)CC2)c1 (stereo not shown) [MECLIZINE] | – | <5 | 78 | –
11 | CCCCCCCCCCCCCCCCOP(=O)([O-])OCC[N+](C)(C)C [miltefosine, reference compound] | – | – | – | inhibition ([1]; read-out: inhibition LmjIPCS): 3.35%; cross-resistance in clemastine fumarate-resistant L. major clones [3]: no evidence for cross-resistance
12 | C=C[C@H]1C[N@@]2CC[C@H]1C[C@H]2[C@H](O)c1ccnc2ccc(OC)cc12 [QUININE] | – | <5 | 70 | –
13 | CN(C)CCCN1c2ccccc2Sc2ccc(Cl)cc21 [chlorpromazine 3, chlorpromazine, reference compound] | – | 76 | 88 | IC50 [1]: 4.7 µM; LmjIPCS inhibition ([1]; secondary dose response): confirmed; ED50 vs L. major [2, 6]: 9800 µM; EC50 [2]: > 1 µM
14 | CC1=C2C(=CO[C@H](C)[C@H]2C)C(O)=C(C(=O)O)C1=O [CITRININ] | – | <5 | 76 | –
15 | [H]/N=C(/NCCCCC)N/N=C/c1c[nH]c2ccc(OC)cc12 [TEGASEROD] | 71 | – | – | inhibition of growth at 10000 µM [2, 5]: < 5%
16 | O=c1[nH]c2ccccc2n1C1CCN(CCCC(c2ccc(F)cc2)c2ccc(F)cc2)CC1 [pimozide 10, pimozide, reference compound] | – | 56 | 77 | IC50 [1]: 4.14 µM; LmjIPCS inhibition ([1]; secondary dose response): confirmed; ED50 vs L. major [2, 6]: 22900 µM; EC50 [2]: > 1 µM
17 | CCN(CCCc1ccccc1)CCCc1ccccc1 [ALVERINE] | 70 | <5 | – | –
18 | CCCCCCCCNC(C)C(O)c1ccc(SC(C)C)cc1 (stereo not shown) [suloctidil 15, suloctidil, reference compound] | 81 | 74 | – | IC50 [1]: 3.67 µM; LmjIPCS inhibition ([1]; secondary dose response): confirmed; ED50 vs L. major [2, 6]: 1330 µM; EC50 [2]: > 1 µM
19 | GINKGOLIC ACID | – | <5 | 73 | –
20 | N=C1C=CC(=C(c2ccc(N)cc2)c2ccc(N)cc2)C=C1 [pararosaniline 8, pararosaniline] | – | 75 | 78 | IC50 ([1]; dose response, read-out: IC50 vs LmjIPCS): > 100 µM; IC50 against LmjIPCS ([1]; secondary dose response, commercially sourced samples): could not be determined; ED50 vs L. major [2, 6]: 9780 µM; antileishmanial activity ([2]; L. major promastigotes): poor antileishmanial activity
21 | CN(C)CCC=C1c2ccccc2CCc2ccccc21 [AMITRIPTYLINE] | – | <5 | 82 | –
22 | Cc1cc(C(C)(C)C)c(O)c(C)c1CC1=NCCN1 [OXYMETAZOLINE] | 75 | <5 | – | –
23 | CNCCC=C1c2ccccc2CCc2ccccc21 [NORTRIPTYLINE] | – | – | 81 | 10mM inhibition L. major [2]: <5%

Row | Compound | 20mM inhibition LmjIPCS [1, 4] [%] | 10mM inhibition L. major [2, 5] [%] | 20mM inhibition LmjIPCS [1] [%] | further results
24 | CC(CN1c2ccccc2Sc2ccccc21)N(C)C (stereo not shown) [PROMETHAZINE] | 78 | <5 | – | –
25 | C=CC1=C(C)c2cc3[nH]c(cc4nc(cc5[nH]c(cc1n2)c(C)c5CCC(=O)O)C(CCC(=O)O)=C4C)c(C)c3C=C [PROTOPORPHYRIN IX] | 77 | <5 | – | –
26 | CCCCOc1ccc(OCCCN2CCOCC2)cc1 [PRAMOXINE] | – | <5 | 71 | –
27 | Cc1nnc(NS(=O)(=O)c2ccc(N)cc2)s1 [sulfamethizole 14, sulfamethizole, reference compound] | – | 68 | 77 | IC50 [1]: > 100 µM; IC50 against LmjIPCS [1]: could not be determined; ED50 vs L. major [2, 6]: 39600 µM; antileishmanial activity ([2]; L. major promastigotes): poor antileishmanial activity
28 | C[C@]12CC[C@@H]3c4ccc(O)cc4CC[C@H]3[C@@H]1CC[C@@H]2OC(=O)CCC1CCCC1 [ESTRADIOL CYPIONATE] | – | <5 | 83 | –
29 | CN1[C@@H]2CC[C@H]1C[C@@H](OC(c1ccccc1)c1ccccc1)C2 [BENZTROPINE] | – | – | – | 10mM inhibition L. major [2]: <5%
30 | CCC(=O)O[C@H]1CC[C@H]2[C@@H]3CCc4cc(O)ccc4[C@H]3CC[C@]12C [ESTRADIOL PROPIONATE] | 74 | <5 | – | –
31 | Cc1cc(N)c2ccccc2[n+]1CCCCCCCCCC[n+]1c(C)cc(N)c2ccccc21 | – | <5 | 72 | –
32 | CCN1C[C@]2(COC)[C@H](O)C[C@H](OC)[C@@]34[C@@H]5C[C@@]6(O)[C@H](OC(=O)c7ccccc7)[C@@H]5[C@@](OC(C)=O)([C@@H]([C@H](OC)[C@H]23)[C@@H]14)[C@@H](O)[C@@H]6OC [ACONITINE] | – | <5 | 97 | –
33 | CCOC(=O)C1=C(COCCN)NC(C)=C(C(=O)OC)C1c1ccccc1Cl (stereo not shown) [amlodipine 2, amlodipine, reference compound] | – | 62 | 80 | IC50 [1]: 3 µM; LmjIPCS inhibition ([1]; secondary dose response): confirmed; ED50 vs L. major [2, 6]: 1910 µM; EC50 [2]: > 1 µM
34 | CC(CN(C)C)CN1c2ccccc2Sc2ccccc21 (stereo not shown) [TRIMEPRAZINE] | – | <5 | 71 | –
35 | CCCc1cc(=O)[nH]c(=S)[nH]1 [PROPYLTHIOURACIL] | – | – | 73 | 10mM inhibition L. major [2]: <5%
36 | CNCCCC12CCC(c3ccccc31)c1ccccc12 [MAPROTILINE] | – | – | – | 10mM inhibition L. major [2]: <5%
37 | CN[C@H]1CC[C@@H](c2ccc(Cl)c(Cl)c2)c2ccccc21 [sertraline 13, sertraline, reference compound] | – | – | – | ED50 vs L. major [2]: 14580 µM
38 | CC(C)NCC(O)COc1cccc2ccccc12 (stereo not shown) [propranolol 12, propranolol, reference compound] | – | – | – | 10mM inhibition L. major [2]: 84%; ED50 vs L. major [2]: 4910 µM
39 | CN(C)CCC=C1c2ccccc2COc2ccccc21 [doxepin 5, doxepin, reference compound] | – | – | – | 10mM inhibition L. major [2]: 44%; ED50 vs L. major [2]: 30000 µM
40 | CO[C@]12C[C@@H](COC(=O)c3cncc(Br)c3)CN(C)[C@@H]1Cc1cn(C)c3cccc2c13 [NICERGOLINE] | – | <5 | 80 | –
41 | TANNIC ACID | – | <5 | 91 | –
42 | COC1=C[C@@H](C)[C@@H]2C[C@H]3OC(=O)C[C@H]4C(C)=C(OC)C(=O)[C@H]([C@@]2(C)C1=O)[C@@]34C [QUASSIN] | 70 | – | – | inhibition of growth at 10000 µM [2, 5]: < 5%
43 | COc1ccccc1OCCNCC(O)COc1cccc2[nH]c3ccccc3c12 (stereo not shown) [CARVEDILOL] | – | <5 | 73 | –
44 | CC(NCCC(c1ccccc1)c1ccccc1)c1ccccc1 (stereo not shown) [fendiline 6, fendiline, reference compound] | 71 | 74 | – | IC50 [1]: 4.22 µM; LmjIPCS inhibition ([1]; secondary dose response): confirmed; ED50 vs L. major [2, 6]: 7640 µM; EC50 [2]: > 1 µM
45 | CCCCC(CC)CN1CN(CC(CC)CCCC)CC(C)(N)C1 (stereo not shown) [HEXETIDINE] | 85 | <5 | – | –
46 | CN1CCN(CCCN2c3ccccc3Sc3ccc(C(F)(F)F)cc32)CC1 [trifluoperazine 16, trifluoperazine, reference compound] | – | 67 | 86 | IC50 [1]: 5.03 µM; LmjIPCS inhibition ([1]; secondary dose response): confirmed; ED50 vs L. major [2, 6]: 7170 µM; EC50 [2]: > 1 µM
